Here are results for 6 compounds from ChEMBL document CHEMBL1268995, “The structure and antimalarial activity of dispiro-1,2,4,5-tetraoxanes derived from (+)-dihydrocarvone” (Bioorg Med Chem Lett, 2010).

Series [1] concerns Plasmodium falciparum. Description: Antimalarial activity against chloroquine-sensitive Plasmodium falciparum NF54. Type of series: functional, organism-based.
For series [2], the system named is Plasmodium falciparum. Put plainly: Antimalarial activity against chloroquine-resistant Plasmodium falciparum K1. Type of series: functional, organism-based.
For another series, the system named is Plasmodium berghei. Put plainly: Antimalarial activity against Plasmodium berghei infected in NMRI mice (Mus musculus) assessed as reduction in parasitaemia at 100 mg/kg, perorally administered 1 day post-infection measured 3 day post-infection. It is filed as functional. Also on record: scale not given: the % may be the effect or the level left. Conditions: route oral.

Series [3] in a line: Partition coefficient, log P of the compound. It is filed as physicochemical. Particulars: octanol/water.

≈ marks a conversion by molar mass, not a printed value.

`C=C(C)[C@@H]1CC[C@@H](C)C2(C1)OOC1(C[C@H](C(=C)C)CC[C@H]1C)OO2` (stereo partly specified): the values for the IC50 in the series on Plasmodium falciparum [1] and with Plasmodium falciparum [2] were 6.6 ng/mL (≈ 0.0196 µM) and 0.0069 µg/mL (≈ 0.0205 µM), respectively. Moreover, the Activity with Plasmodium berghei came out at 99.9%.

Turning to `CC(=O)[C@@H]1CC[C@@H](C)C2(C1)OOC1(C[C@H](C(C)=O)CC[C@H]1C)OO2` (stereo partly specified), the IC50 was 2.1 ng/mL (≈ 0.00617 µM) with Plasmodium falciparum [1] and 0.0021 µg/mL (≈ 0.00617 µM) in the series with Plasmodium falciparum [2]. Besides, the Activity in the series on Plasmodium berghei was found to be 63%.

On to `CC(N)[C@@H]1CC[C@@H](C)C2(C1)OOC1(C[C@H](C(C)N)CC[C@H]1C)OO2` (stereo partly specified), for which the half-maximal inhibitory concentration (IC50) in the series on Plasmodium falciparum [1] was determined as 82 ng/mL (≈ 0.239 µM); with Plasmodium falciparum [2], 0.054 µg/mL (≈ 0.158 µM). Besides, in the series on Plasmodium berghei, the Activity was found to be 99.1%.

Regarding `C/C(=N\O)[C@@H]1CC[C@@H](C)C2(C1)OOC1(C[C@H](/C(C)=N/O)CC[C@H]1C)OO2` (stereo partly specified), the IC50 stood at 18 ng/mL (≈ 0.0486 µM) in the series with Plasmodium falciparum [1] and 0.03 µg/mL (≈ 0.081 µM) in the series with Plasmodium falciparum [2]. Besides, the Activity in the series on Plasmodium berghei is under 40%.

In the series on Plasmodium falciparum [1], `C[C@@H]1CC[C@H]2[C@@H](C)C(=O)O[C@@H]3O[C@@]4(C)CC[C@@H]1[C@]32OO4` [ARTEMISININ] yielded a half-maximal inhibitory concentration (IC50) of 3.4 ng/mL (≈ 0.012 µM). For the same compound, the logP in series [3] is 2.2. The Activity in the series with Plasmodium berghei amounted to 98%.

Take `C[C@@H]1CCCCC12OOC1(CCCC[C@@H]1C)OO2` (stereo partly specified) [WR-148999]: the Activity with Plasmodium berghei is on record as 99.7%.
